Measured values reported in PMC5063977 (The Journal of Biological Chemistry, 2016).

What was measured:
[1] = system: untransfected HEK-293 cells; assay: forskolin-stimulated cAMP accumulation, untransfected HEK-293 cells; assay type: cell-based, human
[2] = system: RAMP-CLR complexes (RAMP1, RAMP2, RAMP3); assay: (Ca^2+)i mobilization with inhibitor pretreatment, HEK-293 cells, all RAMP-CLR complexes; assay type: cell-based, human; settings: 100 nM YM-254890, 30 min pretreatment
Description: FIGURE 8. CLR in combination with each RAMP generates receptors that mobilize (Ca^2+)i release when expressed in HEK-293 cells. (Ca^2+)i mobilization was determined from HEK-293 cells transiently transfected with CLR and RAMP1 (n = 5) (A), RAMP2 (n = 5) (B), and RAMP3 (n = 5) (C). […] Data are expressed as percentage of the maximal (Ca^2+)i release as determined using 10 μM ionomycin. To determine the contribution made by different G proteins to the (Ca^2+)i response, cells were preincubated with either PTX (to inhibit Gαi) or YM-254890 (a selective Gαq inhibitor). All values are means ± S.E. of n individual data sets.
HEK-293 cells, provided by Dr. Jügen Müller (University of Aston), were cultured in DMEM supplemented with 10% heat-inactivated FBS and kept at 37 °C in a humidified 95% air, 5% CO2 incubator. HEK-293S cells (a gift from AstraZeneca) were cultured in DMEM supplemented with 8% heat-inactivated FBS and kept at 37 °C in a humidified 95% air, 5% CO2 incubator. HEK-293 cells were transfected with FuGENE 6 (Roche Applied Science) in accordance with the manufacturer's instructions using a 1:3 (w:v) DNA:FuGENE ratio and a 1:1 ratio of RAMP to CLR. HEK-293S cells were seeded into 96-well poly-D-lysine-coated plates at a density of 15,000 cells/well (determined using a Countess^TM cell counter, Invitrogen) 1 day prior to transfection. HEK-293S cells were transiently transfected as described previously ([38]) using a 1:1 ratio of RAMP to CLR. The transfected cell lines were grown for 24–48 h prior to assaying.
Transfected HEK-293 cells were grown to confluence in black, clear bottomed, 96-well plates. […] Ligands were added robotically using a Mithras LB 940 multimode microplate reader in the range of 10 pM to 1 μM, and fluorescence was determined immediately post-injection with an excitation wavelength set to 485 nm and an emission wavelength set to 535 nm. […] Peak magnitude was calculated using five-point smoothing followed by correction against background fluorescence. […]

Row | Molecule | overall level of cAMP accumulation, forskolin stimulation ([1]; untransfected HEK-293, PTX treated) [pmol cell^−1] | overall level of cAMP accumulation, forskolin stimulation ([1]; untransfected HEK-293, untreated (no PTX)) [pmol cell^−1] | effect of YM-254890 on (Ca^2+)i mobilization by AM and AM2 ([2]; HEK-293, all RAMP-CLR complexes) | effect of YM-254890 on response to CGRP ([2]; HEK-293, all three RAMP-CLR complexes)
1 | C=C[C@@]1(C)CC(=O)[C@]2(O)[C@@]3(C)[C@@H](O)CCC(C)(C)[C@@H]3[C@H](O)[C@H](OC(C)=O)[C@@]2(C)O1 [forskolin, Forskolin] | 16.45 ± 2.4 | 16.57 ± 2.5 | – | –
2 | YM-254890 | – | – | abolish all (Ca^2+)i mobilization | considerably attenuated
